Measured values from patent US6506913B2, “Dimethylfurancarboxyanilide derivatives” (Sankyo Company, Limited, priority 1994, dated 2003).

What was measured:
Assay type in all cases: cell-based
Coriolus versicolor [1] = assay: Wood preservative efficacy on impregnated Sugi sapwood: hyphal growth and maximum crushing strength; set-up: key: +: No hyphal growth was observed on the test material, and no difference was found in the maximum crushing strength from the healthy wood sample.; ±: A little hyphal growth was observed on the test material, or a little decrease was found in the maximum crushing strength.; −: Hyphal growth was observed on the test material, or clear decrease was found in the maximum crushing strength; conditions: 0.1 w/v % methanol solution impregnated; weathering twice; 26° C., 3 weeks
Protocol: (§1) Weathering test was repeated twice in which one cycle of the treatment was washing (about 2 liter per minute supply) with water for 5 hours, and then heating for 19 hours at 60° C. After dry air sterilization, the test samples were prepared. The test materials were placed on the flora of Coriolus versicolor which is a lignin-decomposing fungus, and of Tryomyces palustris which is a cellulose-decomposing fungus, and both of which are designated fungal species for assay of wood preservating effect. Both fungi had been previously grown on an agar medium (malt extract 2%, glucose 1% and peptone 0.5%). After the wood samples were forcedly deteriorated at 26° C. for 3 weeks, the effectiveness was determined from the degree of hyphal growth on the test material and the presence or absence of lowered maximum crushing strength. […] The wood preventive efficacy was judged by the following criteria. +: No hyphal growth was observed on the test material, and no difference was found in the maximum crushing strength from the healthy wood sample. ±: A little hyphal growth was observed on the test material, or a little decrease was found in the maximum crushing strength. −: Hyphal growth was observed on the test material, or clear decrease was found in the maximum crushing strength.

Tyromyces palustris [2] = assay: as above; set-up: key: +: No hyphal growth was observed on the test material, and no difference was found in the maximum crushing strength from the healthy wood sample.; ±: A little hyphal growth was observed on the test material, or a little decrease was found in the maximum crushing strength.; −: Hyphal growth was observed on the test material, or clear decrease was found in the maximum crushing strength; conditions: 0.1 w/v % methanol solution impregnated; weathering twice; 26° C., 3 weeks
Protocol: as §1

Coriolus versicolor [3] = assay: Minimum inhibitory concentration by the agar dilution method; conditions: potato dextrose agar, 25° C., 5 days
Description: (§2) Assay of minimum inhibitory concentration by the agar dilution method.
(§3) According to the agar dilution method, on sterilized media (potato dextrose agar medium; potato extract powder 0.4%, glucose 2%, agar 1.5%) prepared to contain certain concentrations of a test sample, flora (about 4 mm in diameter) of wood rotting fungi, Coriolus versicolor and Tyromyces palustris, which has been cultured previously on the same kind of medium, were inoculated.
(§4) Whether there is any potentiation or not has been described in Applied Microbiology 9, 538-541 (1961) by F. C. Kull et al. The assay was carried out according to the method usually employed.

Tyromyces palustris [4] = assay: as above; conditions: potato dextrose agar, 25° C., 5 days
Description: as §2, §3, §4

Serpula lacrymans = assay: Wood preservation test JIS A-9201 (1991): impregnated Sugi sapwood, weathered, forcedly decayed for 12 weeks; conditions: weathering 10 cycles, 20° C., mean of 9 samples
Protocol: (1) According to the test method for wood preservation described in the Japan Industrial Standards [JIS A-9201 (1991)], each of the test compounds was dissolved to a defined concentration in methanol. The solution was impregnated under a reduced pressure into a Sugi (Japanese cedar) sapwood (2×2×1) cm and then air-dried. Weathering test was repeated 10 times in which one cycle of the treatment was stirring in water for 8 hours, and then heating for 16 hours at 60° C. The test material was placed on the flora of Serpula lacrymans which had been previously grown on a quartz sand medium (malt extract 2%, glucose 1%, peptone 0.3% and yeast 0.2%), and forcedly decayed at 20° C. for 12 weeks. From the difference between the dry weight of the test material before the test and that after test, the degree of decrease in weight was obtained. […] The test was carried out by use of 9 samples for each condition, and the values shown in Table 2 are the mean values calculated from 9 samples.

[5] = impregnant concentration 0.005 % in methanol
[6] = impregnant concentration 0.01 % in methanol

Row | Compound | Wood preventive efficacy, Coriolus versicolor (Coriolus versicolor [1]) | Wood preventive efficacy, Tyromyces palustris (Tyromyces palustris [2]) | MIC (ppm), single agent (Coriolus versicolor [3]) | MIC (ppm), single agent (Tyromyces palustris [4]) | Mean weight decrease by decay (%) (Serpula lacrymans; [5]) | Mean weight decrease by decay (%) (Serpula lacrymans; [6])
1 | CC(=O)Nc1cccc(NC(=O)c2cc(C)oc2C)c1 [Example 1, 2,5-Dimethylfuran-3-carboxy(3-acetylaminoanilide)] | ± | − |  |  |  | 
2 | COC(=O)c1cccc(NC(=O)c2cc(C)oc2C)c1 [Example 6, 2,5-Dimethylfuran-3-carboxy(3-methoxycarbonylanilide)] | + | + |  |  |  | 
3 | COC(=O)C=Cc1cccc(NC(=O)c2cc(C)oc2C)c1 [Example 15, 2,5-Dimethylfuran-3-carboxy[3-(2-methoxycarbonylvinyl)anilide]] | + | − |  |  |  | 
4 | Cc1cc(C(=O)Nc2cccc(C(=O)Nc3ccccc3)c2)c(C)o1 [Example 4, 2.5-Dimethylfuran-3-carboxyl[3-(N-phenylcarbamoyl)anilide]] | − | − |  |  |  | 
5 | Cc1cc(C(=O)Nc2cccc(C(=O)OC(C)(C)C)c2)c(C)o1 [Example 5, 2,5-Dimethylfuran-3-carboxy(3-tert-butoxycarbonylanilide)] | − | − |  |  |  | 
6 | CCCCNC(=O)OCC#CI [B] |  |  | 25 ppm | 2.5 ppm |  | 
7 | COc1ccc(Cc2cccc(NC(=O)c3cc(C)oc3C)c2)cc1 [Example 14, 2,5-Dimethylfuran-3-carboxy[3-(4-methoxybenzyl)anilide]] | + | + |  |  |  | 
8 | CNC(=O)c1cccc(NC(=O)c2cc(C)oc2C)c1 [Example 2, 2.5-Dimethylfuran-3-carboxy[3-(N-methylcarbamoyl)anilide]] | − | − |  |  |  | 
9 | Cc1cc(C(=O)Nc2cccc(NC(=O)c3ccccc3)c2)c(C)o1 [Example 8, 2,5-Dimethylfuran-3-carboxy(3-benzoylaminoanilide)] | ± | − |  |  |  | 
10 | Cc1cc(C(=O)Nc2cccc(COC(C)C)c2)c(C)o1 [Example 13, 2,5-Dimethylfuran-3-carboxy(3-isopropyloxymethylanilide)] | + | + |  |  |  | 
11 | CCC(C)c1cccc(NC(=O)c2cc(C)oc2C)c1 (stereo not drawn) [Example 25, 2,5-Dimethylfuran-3-carboxy(3-sec-butylanilide)] | + | + |  |  |  | 
12 | Cc1cc(C(=O)Nc2cccc(C(=O)N3CCCCC3)c2)c(C)o1 [Example 3, 2,5-Dimethylfuran-3-carboxy[3-(1-piperidylcarbonyl)anilide]] | − | − |  |  |  | 
13 | COCc1cccc(NC(=O)c2cc(C)oc2C)c1 [Example 11, 2,5-Dimethylfuran-3-carboxy(3-methoxymethylanilide)] | + | ± |  |  |  | 
14 | CCCCCCc1cccc(NC(=O)c2cc(C)oc2C)c1 [Example 23, 2,5-Dimethylfuran-3-carboxy(3-hexylanilide)] | + | + |  |  |  | 
15 | Cc1cc(C(=O)Nc2cccc(NC(=O)C3CCCCC3)c2)c(C)o1 [Example 10, 2,5-Dimethylfuran-3-carboxy(3-cyclohexylcarbonylaminoanilide)] | + | − |  |  |  | 
16 | CCCCCc1cccc(NC(=O)c2cc(C)oc2C)c1 [Example 26, 2,5-Dimethylfuran-3-carboxy(3-pentylanilide)] | + | + |  |  |  | 
17 | Clc1ccc(OCOCC#CI)cc1 [Control compound 1, 4-Chlorophenyl-3-iodopropargylformal, reference compound] |  |  | 6 ppm | 2 ppm | 18.6% | 9.7%
18 | Cc1cc(C(=O)Nc2cccc(C(=O)c3ccccc3)c2)c(C)o1 [Example 7, 2,5-Dimethylfuran-3-carboxy(3-benzoylanilide)] | + | − |  |  |  | 
19 | Cc1cc(C(=O)Nc2cccc(C(C)C)c2)c(C)o1 [Example 21, 2,5-Dimethylfuran-3-carboxy(3-isopropylanilide)] | + | + | 10.0 ppm | 200 ppm | 0% | 0%
20 | CCOCc1cccc(NC(=O)c2cc(C)oc2C)c1 [Example 12, 2,5-Dimethylfuran-3-carboxy(3-ethoxymethylanilide)] | ± | ± |  |  |  | 
21 | CCc1cccc(NC(=O)c2cc(C)oc2C)c1 [Example 20, 2,5-Dimethylfuran-3-carboxy(3-ethylanilide)] | + | + | 2.5 ppm | 200 ppm | 0.1% | 0%
22 | CCCCC(=O)Nc1cccc(NC(=O)c2cc(C)oc2C)c1 [Example 9, 2,5-Dimethylfuran-3-carboxy(3-valerylaminoanilide)] | − | − |  |  |  | 
23 | CCCCc1cccc(NC(=O)c2cc(C)oc2C)c1 [Example 24, 2,5-Dimethylfuran-3-carboxy(3-butylanilide)] | + | + |  |  |  | 
24 | CCOC(=O)OCC(I)=C(Br)I [Control compound 2, 3-Bromo-2,3-diiodo-2-propenylethylcarbonate, reference compound] | + | + | 15 ppm | 25 ppm |  | 
